Source: patent US7319109B2, “Farnesoid X receptor agonists” (Smith Kline Beecham Corporation, priority 2002, dated 2008)

Target: T1, Human FXRα Ligand Binding Domain (FXRα LBD) (Homo sapiens, UniProt Q96RI1)
T1 construct: polyhistidine (N); made in house; host or cells: E. coli BL21 (DE3), pRSET-A vector
T1 sequence (Q96RI1 222-472 isoform Q96RI1-2): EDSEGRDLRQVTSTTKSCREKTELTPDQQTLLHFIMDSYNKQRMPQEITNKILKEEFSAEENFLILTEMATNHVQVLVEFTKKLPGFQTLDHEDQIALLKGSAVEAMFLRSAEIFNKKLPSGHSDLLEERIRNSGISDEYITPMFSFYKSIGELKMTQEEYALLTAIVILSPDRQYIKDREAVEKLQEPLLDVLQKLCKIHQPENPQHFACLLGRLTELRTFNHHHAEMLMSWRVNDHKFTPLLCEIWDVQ
Assay: FXR Affinity Binding Assay: ligand mediated cofactor peptide (SRC-1 LCD2, 676-700) interaction, time resolved fluorescence
Conditions: FXRα LBD-APC / europium labeled SRC-1 peptide, TRF signal, at least 2 hours at room temperature; read-out: Activity (pEC50) (converted)

CC(C)c1onc(-c2ccccc2OC(F)(F)F)c1COc1ccc(COc2cccc(C(=O)O)c2)c(Cl)c1 [Example 85, 3-{[2-Chloro-4-({5-isopropyl-3-[2-(trifluoromethoxy)phenyl]isoxazol-4-yl}methoxy)-benzyl]oxy}benzoic acid] showed an EC50 of 102 to 1000 nM.

Work on Cc1cc(OCc2c(-c3ccccc3OC(F)(F)F)noc2C(C)C)ccc1COc1cccc(C(=O)O)c1 [Example 86, 3-{[4-({5-Isopropyl-3-[2-(trifluoromethoxy)phenyl]isoxazol-4-yl}methoxy)-2-methyl-benzyl]oxy}benzoic acid] yielded an EC50 of 102 to 1000 nM.

CCc1onc(Cc2c(Cl)cccc2Cl)c1COc1ccc(COc2cccc(C(=O)O)c2)c(Cl)c1 [Example 87, 3-[(2-Chloro-4-{[3-(2,6-dichlorobenzyl)-5-ethylisoxazol-4-yl]methoxy}benzyl)oxy]benzoic acid] was tested, and the EC50 was 102 to 1000 nM.

Work on COC(=O)c1cccc(SCc2ccc(OCc3c(-c4ccccc4OC(F)(F)F)noc3C(C)C)cc2Cl)c1 [Example 88, Methyl 3-{[2-chloro-4-({5-isopropyl-3-[2-(trifluoro-methoxy)phenyl]isoxazol-4-yl}methoxy)benzyl]thio}benzoate] yielded an EC50 of 102 to 1000 nM.

For COC(=O)c1cccc(SCc2ccc(OCc3c(-c4ccccc4OC(F)(F)F)noc3C(C)C)cc2C)c1 [Example 89, Methyl 3-{[4-({5-isopropyl-3-[2-(trifluoromethoxy)phenyl]isoxazol-4-yl}methoxy)-2-methylbenzyl]thio}benzoate], the EC50 was 102 to 1000 nM.

Molecule CC(C)c1onc(-c2ccccc2OC(F)(F)F)c1COc1ccc(CSc2cccc(C(=O)O)c2)c(Cl)c1 [Example 90, 3-{[2-Chloro-4-({5-isopropyl-3-[2-(trifluoromethoxy)phenyl]isoxazol-4-yl}methoxy)-benzyl]thio}benzoic acid] has an EC50 of 102 to 1000 nM.

Cc1cc(OCc2c(-c3ccccc3OC(F)(F)F)noc2C(C)C)ccc1CSc1cccc(C(=O)O)c1 [Example 91, 3-{[4-({5-Isopropyl-3-[2-(trifluoromethoxy)phenyl]isoxazol-4-yl}methoxy)-2-methyl-benzyl]thio}benzoic acid] gave an EC50 of 102 to 1000 nM.

In the case of COC(=O)c1cccc(N(C)Cc2ccc(OCc3c(-c4c(Cl)cccc4Cl)noc3C(C)C)cc2Cl)c1 [Example 92, Methyl 3-[(2-chloro-4-{[3-(2,6-dichlorophenyl)-5-isopropylisoxazol-4-yl]methoxy}benzyl)(methyl)amino]benzoate], the EC50 is reported as 102 to 1000 nM.

With CC(C)c1onc(-c2c(Cl)cccc2Cl)c1COc1ccc(CN(C)c2cccc(C(=O)O)c2)c(Cl)c1 [Example 93, 3-[(2-Chloro-4-{[3-(2,6-dichlorophenyl)-5-isopropylisoxazol-4-yl]methoxy}benzyl)(methyl)amino]benzoic acid] the EC50 was 102 to 1000 nM.

CC(C)c1onc(-c2c(Cl)cccc2Cl)c1COc1ccc(CNc2cccc(C(=O)O)c2)c(Cl)c1 [Example 94, 3-[(2-Chloro-4-{[3-(2,6-dichlorophenyl)-5-isopropylisoxazol-4-yl]methoxy}benzyl)amino]benzoic acid] gave an EC50 of 102 to 1000 nM.

For CCOC(=O)c1cccc(NCc2ccc(OCc3c(-c4ccccc4OC(F)(F)F)noc3C(C)C)cc2Cl)c1 [Example 95, Ethyl 3-{[2-chloro-4-({5-isopropyl-3-[2-(trifluoromethoxy)phenyl]-4-isoxazolyl}methoxy)benzyl]amino}benzoate], the EC50 was 102 to 1000 nM.

With CC(C)c1onc(-c2ccccc2OC(F)(F)F)c1COc1ccc(CNc2cccc(C(=O)O)c2)c(Cl)c1 [Example 96, 3-{[2-Chloro-4-({5-isopropyl-3-[2-(trifluoromethoxy)phenyl]-4-isoxazolyl}methoxy)benzyl]amino}benzoic acid] the EC50 was 102 to 1000 nM.

CC(C)c1onc(-c2ccccc2OC(F)(F)F)c1COc1ccc(CN(C)c2cccc(C(=O)O)c2)c(Cl)c1 [Example 97, 3-[[2-Chloro-4-({5-isopropyl-3-[2-(trifluoromethoxy)phenyl]-4-isoxazolyl}methoxy)benzyl](methyl)amino]benzoic acid] was tested, and the EC50 was 102 to 1000 nM.

COC(=O)c1ccc(COc2ccc(OCc3c(-c4c(Cl)cccc4Cl)noc3C(C)C)cc2C)cc1 [Example 98, Methyl 4-[(4-{[3-(2,6-dichlorophenyl)-5-isopropylisoxazol-4-yl]methoxy}-2-methylphenoxy)methyl]benzoate] was tested, and the EC50 was 1020 to 10000 nM.

In the case of COC(=O)c1cccc(COc2ccc(OCc3c(-c4c(Cl)cccc4Cl)noc3C(C)C)cc2Cl)c1 [Example 99, Methyl 3-[(2-chloro-4-{[3-(2,6-dichlorophenyl)-5-isopropylisoxazol-4-yl]methoxy}-phenoxy)methyl]benzoate], the EC50 is reported as 1020 to 10000 nM.

COC(=O)c1cccc(COc2ccc(OCc3c(-c4c(Cl)cccc4Cl)noc3C(C)C)cc2C)c1 [Example 100, Methyl 3-[(4-{[3-(2,6-dichlorophenyl)-5-isopropylisoxazol-4-yl]methoxy}-2-methyl-phenoxy)methyl]benzoate] gave an EC50 of 102 to 1000 nM.

CC(C)c1onc(-c2c(Cl)cccc2Cl)c1COc1ccc(OCc2cccc(C(=O)O)c2)c(Cl)c1 [Example 101, 3-[(2-Chloro-4-{[3-(2,6-dichlorophenyl)-5-isopropylisoxazol-4-yl]methoxy}phenoxy)-methyl]benzoic acid] showed an EC50 of 102 to 1000 nM.

Cc1cc(OCc2c(-c3c(Cl)cccc3Cl)noc2C(C)C)ccc1OCc1cccc(C(=O)O)c1 [Example 102, 3-[(4-{[3-(2,6-Dichlorophenyl)-5-isopropylisoxazol-4-yl]methoxy}-2-methylphenoxy)-methyl]benzoic acid] was tested, and the EC50 was 102 to 1000 nM.
